The record followed here is US20050101783A1, “N-(heterocycle-methyl)alkylamine derivative, process for producing the same, and bactericide” (priority 2000, published 2005).

Molecules are shown by their SMILES.

Assay [1] relates to Aspergillus fumigatus. Nature of the assay: Antibacterial test to Aspergillus fumigatus (96-hole plate, IC80). In kind it is cell-based. The note with it: YNB culture with 0.22% low melting point-agarose, 1×10^4 cell/ml, 25° C., 72 hours, absorbance at 620 nm. The procedure: (Antibacterial Test to Aspergillus fumigatus)
In the test example, a test was performed on the antibacterial of the compounds according to the present invention to Aspergillus fumigatus in the method later described.
Aspergillus fumigatus was cultivated in Sabouraud's agar at 37° C. for 3 days, after the spores to be used for the test were formed, the spore suspension was prepared. The spore suspension was suspended in YNB culture to which a 0.22% low melting point-agarose was added so as to allow the final concentration to be 1×10^4 cell/ml, and the solution was poured into each hole on a 96-hole flat-bottomed plate. Next, the dilution trains using each of the compounds according to the present invention were added, the solution was cultivated at 25° C. for 72 hours, and the propagation rate of the mold was evaluated by measuring the absorbance at 620 nm. With such a test, the propagation rate of the mold in the chemical-free test area was compared with this case to find the concentration of the compound where the propagation rate of the mold is suppressed by 80% as IC 80 (80% growth inhibition concentration).

Assay [2] concerns Erysiphe graminis f. sp tritici. Nature of the assay: Preventive effect test of wheat powdery mildew (wettable powder sprayed on potted wheat, preventive value). The class given is in vivo. The note with it: wettable powder suspended at 250 mg/l, sprayed on potted wheat at 100 l/10 a; morbidity investigated 9th to 14th day after inoculation. How it is done:
(Preventive Effect Test of Erysiphe graminis f. sp […])
The wettable powders obtained by using each compound were diluted with water and were suspended at a predetermined concentration (250 mg/l) and the solution was sprayed over the first to second leaf stage-wheat (variety. Agriculture and Forestry No. 64) cultivated by using a square plastic pot (size: 6.4 cm×6.4 cm) at a rate of 100 1/10 a (are).
After the sprayed leaves were air-dried, the suspension of the spore of Erysiphe graminis f. sp tritici germ sampled from the contracted leaves were sprayed and inoculated over the sprayed leaf after air-dried, the leaves were kept at 20 to 24° C. under a high-humidity condition for 24 hours, then, the leaves were subjected to still standing in a greenhouse (temperature: 20 to 24° C. and relative humidity: 20 to 70 RH). The morbidity rate was investigated based on the following investigation standard on 9th to 14th day after the inoculation and the preventive value was calculated according to the following formula 1.

The subject of assay [3] is Microdohium nivale. Nature of the assay: Antibacterial test to various phytopathogen, PDA plate culture, suppression of mold elongation. In kind it is cell-based. The settings on record: final concentration 100 mg/l, 1 to 3 days; for inhibition at 100 µg/mL: read-out: Inhibition Rate of Growth (suppression rate of the mold elongation, 5-step grade) M.n. The procedure:
(§1) (Antibacterial Test to Various Phytopathogen)
(§2) In the test examples, a test was performed on the antibacterial of the compounds according to the present invention to various phytopathogenic molds in the methods later described.
(§3) The compounds of 10 mg were each weighed and they were each dissolved in dimethylsulfoxide of 1 ml. The solution of 0.6 ml was added to PDA culture medium (potato-dextrose-agar culture medium) of 60 ml at about 60° C, the solutions were well mixed in an Erlenmeyer flask of 100 ml, and the solution was poured into a Schale and was solidified therein to prepare a plate culture containing the compound according to the present invention of final concentration of 100 mg/l.
(§4) On the other hand, the sample molds on the plate cultured beforehand were punched by a cork borer of diameter of 4 mm, and they were inoculated on the plate culture containing the aforementioned chemical material. After the inoculation, the molds were inoculated at the appropriate growth temperatures of each mold (for the appropriate growth temperatures, for example, the Reference, LIST OF CULTURE 1996 MICROORGANISM 10th edition published by Institute for Fermentation can be referred to.) for 1 to 3 days, the growth rates of the molds were evaluated by measuring the diameter of a colony. The growth rate of the mold thus obtained on the plate culture containing the chemical material is compared with the growth rate of the mold in the non-addition area of the chemical material to find the suppression rate of the mold elongation by the following formula 3. R=100 (dc−dt)/dc (Formula 3) [wherein, R is the suppression rate of the mold elongation (%), dc is the diameter of a colony on an untreated plate and dt is the diameter of a colony on a chemical-treated plate, respectively.]
(§5) • 5: Mold whose suppression rate of the mold elongation is • 90% or higher • 4: Mold whose suppression rate of the mold elongation is less than 90% and 70% or higher • 3: Mold whose suppression rate of the mold elongation is less than 70% and 40% or higher • 2: Mold whose suppression rate of the mold elongation is less than 40% and 20% or higher • 1: Mold whose suppression rate of the mold elongation is less than 20%
(§6) In addition, the meanings of the abbreviated letters in Table 22 are as follows: • B. c.; Botrytis cinerea • P. h.; Pseudocercosporella herpotrichoides • M. n.; Microdohium nivale • L. n.; Leptosphaeria nodorum

In assay [4] the test system is Botrytis cinerea. The assay is described as above. In kind it is cell-based. The settings on record: final concentration 100 mg/l, 1 to 3 days; for inhibition at 100 µg/mL: Botrytis cinerea, read-out: Inhibition Rate of Growth (suppression rate of the mold elongation, 5-step grade) B.c. How it is done:
as §1, §2, §3, §4, §5, §6

Assay [5] relates to Leptosphaeria nodorum. The assay is described as above. The class given is cell-based. The note with it: final concentration 100 mg/l, 1 to 3 days; for inhibition at 100 µg/mL: Parastagonospora nodorum, read-out: Inhibition Rate of Growth (suppression rate of the mold elongation, 5-step grade) L.n. How it is done:
as §1, §2, §3, §4, §5, §6

For assay [6], the system named is Pseudocercosporella herpotrichoides. Described as above. In kind it is cell-based. The note with it: final concentration 100 mg/l, 1 to 3 days; for inhibition at 100 µg/mL: Oculimacula yallundae, read-out: Inhibition Rate of Growth (suppression rate of the mold elongation, 5-step grade) P.h. The procedure: as §1, §2, §3, §4, §5, §6
Assay [7] deals with Venturia inaequalis. The description is as above. The class given is cell-based. The note with it: final concentration 100 mg/l, 1 to 3 days; for inhibition at 100 µg/mL: Venturia inaequalis, read-out: Inhibition Rate of Growth (suppression rate of the mold elongation, 5-step grade) V.i. How it is done:
as §1, §2, §3, §4, §5
V. i.: Venturia inaequalis

For assay [8], the system named is cucumber powdery mildew. Nature of the assay: Preventive effect of cucumber powdery mildew (wettable powder sprayed on potted cucumber, preventive value). The note with it: wettable powder suspended at 100 mg/l, sprayed on potted cucumber at 100 l/10 a; morbidity investigated 9th to 14th day after inoculation. The class given is in vivo. The procedure: (Preventive Effect of Cucumber Powdery Mildew)
The wettable powders obtained by using each compound were diluted with water and were suspended at a predetermined concentration (100 mg/l) and the solution was sprayed over the first to second leaf stage-cucumber (variety: “Sagamihanpakufushinari”) cultivated by using a square plastic pot (size: 6.4 cm×6.4 cm) at a rate of 100 1/10 a.
After the sprayed leaves were air-dried, the spore was inoculated over the aforementioned air-dried leaves from the contracted leaves with a brush, and the contraction was performed in a glass greenhouse (temperature: 20 to 24° C. and relative humidity: 20 to 70 RH). The morbidity rate was investigated based on the same investigation standard as that in the preventive effect test of the cucumber gray mold on 9th to 14th day after the inoculation, and the preventive value was calculated according to the aforementioned formula 2.

For assay [9], the system named is cucumber gray mold. In words: Preventive effect test of cucumber gray mold (wettable powder sprayed on potted cucumber, preventive value). The class given is in vivo. The settings on record: wettable powder suspended at 250 mg/l, sprayed on potted cucumber at 100 l/10 a; morbidity investigated 4th to 6th day after inoculation. How it is done: (Preventive Effect Test of Cucumber Gray Mold)
The wettable powders obtained by using each compound were diluted with water and were suspended at a predetermined concentration (250 mg/l) and the solution was sprayed over the first to second leaf stage-cucumber (variety: “Sagamihanpakufushinari”) cultivated by using a square plastic pot (size: 6.4 cm×6.4 cm) at a rate of 100 1/10 a.
After the sprayed leaves were air-dried, a paper disk where the solution of the spore of the gray mold suspended with water was impregnated was put on the aforementioned sprayed leaves, and the leaves were contracted in a glass greenhouse (temperature: 20 to 24° C. and relative humidity: 20 to 70 RH). The morbidity rate was investigated based on the following investigation standard on 4th to 6th day after the inoculation and the preventive value was calculated according to the following formula 2.

Turning to `CC(C)(CNCc1cnc(Cl)cn1)Cc1ccc(C(C)(C)C)cc1` [Compound I-5], the “80% Growth Inhibition Concentration (IC80)” value in assay [1] was 9 µg/mL.
By inhibition is commonly meant the percentage by which the read-out fell short of the control. In the case of `CC(CCc1cccc(OC(F)(F)F)c1)CN(C)Cc1ccc(Cl)nc1` (stereo not drawn) [Compound I-58, 6-chloro-N-[2-methyl-4-(3-trifluoromethoxyphenyl)butyl]-N-methyl-3-pyridylmethylamine], the “Preventive Value (%)” value in [2] amounted to 100%. In addition, the inhibition at 100 µg/mL in [3], in [4], in assay [5], in assay [6] and in [7] was at least 90% each time.
For `CC(CCc1cc(Cl)cc(Cl)c1)CN(C)Cc1ccc(Cl)nc1` (stereo not drawn) [Compound I-57], the “Preventive Value (%)” value in assay [8] and in [2] was 100% in each case. In assay [3], the “Inhibition Rate of Growth (suppression rate of the mold elongation, 5-step grade) M.n.” value was 5 (Mold whose suppression rate of the mold elongation is • 90% or higher). Further, in [4], the “Inhibition Rate of Growth (suppression rate of the mold elongation, 5-step grade) B.c.” value is given as 5 (Mold whose suppression rate of the mold elongation is • 90% or higher). In addition, the “Inhibition Rate of Growth (suppression rate of the mold elongation, 5-step grade) L.n.” value in assay [5] is reported as 5 (Mold whose suppression rate of the mold elongation is • 90% or higher). In addition, in [6], the “Inhibition Rate of Growth (suppression rate of the mold elongation, 5-step grade) P.h.” value is reported as 5 (Mold whose suppression rate of the mold elongation is • 90% or higher). Also, in [7], the “Inhibition Rate of Growth (suppression rate of the mold elongation, 5-step grade) V.i.” value is reported as 5 (Mold whose suppression rate of the mold elongation is • 90% or higher).
In the case of `CC(CCc1ccc(OC(F)(F)F)cc1)CN(C)Cc1ccc(Cl)nc1` (stereo not drawn) [Compound I-60], the “Preventive Value (%)” value in [9] and in assay [2] was 100% throughout. In addition, in assay [3], the “Inhibition Rate of Growth (suppression rate of the mold elongation, 5-step grade) M.n.” value is listed as 5 (Mold whose suppression rate of the mold elongation is • 90% or higher). Besides, the “Inhibition Rate of Growth (suppression rate of the mold elongation, 5-step grade) B.c.” value in assay [4] is given as 5 (Mold whose suppression rate of the mold elongation is • 90% or higher). Moreover, the “Inhibition Rate of Growth (suppression rate of the mold elongation, 5-step grade) L.n.” value in [5] is reported as 5 (Mold whose suppression rate of the mold elongation is • 90% or higher). Moreover, the “Inhibition Rate of Growth (suppression rate of the mold elongation, 5-step grade) P.h.” value in assay [6] is on record as 5 (Mold whose suppression rate of the mold elongation is • 90% or higher). Further, the “Inhibition Rate of Growth (suppression rate of the mold elongation, 5-step grade) V.i.” value in [7] is 5 (Mold whose suppression rate of the mold elongation is • 90% or higher).
`Cn1cc(CNCC(C)(C)Cc2ccc(F)cc2F)cn1` [Compound I-9]: the “80% Growth Inhibition Concentration (IC80)” value in assay [1] amounted to 150 µg/mL.
Still for that read-out and setting: the value for `CC(C)(CNCc1ccc(Cl)nc1)Cc1ccccc1Cl` [Compound I-3] was 9 µg/mL.
Take `CC(C)(CNCc1ccc(Cl)nc1)Cc1ccc(C(C)(C)C)cc1` [Compound I-2]: in assay [2], the “Preventive Value (%)” value is 100%. Further, in assay [1], the “80% Growth Inhibition Concentration (IC80)” value turned out to be 38 µg/mL.
For `CN(Cc1cnc(Cl)s1)CC(C)(C)Cc1ccc(OC(F)(F)F)cc1` [Compound I-142], the “Preventive Value (%)” value in [9], in [8] and in [2] was 100% throughout.
On to `Cn1cc(CNCC(C)(C)Cc2ccccc2F)cn1` [Compound I-7], for which, in assay [1], the “80% Growth Inhibition Concentration (IC80)” value stood at 150 µg/mL.
Turning to `CC(C)Oc1ccc(CC(C)(C)CN(C)Cc2ccc(Cl)nc2)cc1` [Compound I-74], the “Preventive Value (%)” value in assay [9], in assay [8] and in assay [2] was 100% in each case.
With `CC(C)(CNCc1ccccn1)Cc1ccc(C(C)(C)C)cc1` [Compound I-1], in [1], the “80% Growth Inhibition Concentration (IC80)” value was 5 µg/mL.
In the case of `CN(Cc1ccc(Cl)nc1)CC(C)(C)Cc1ccc(OC(C)(C)C)cc1` [Compound I-73], the “Preventive Value (%)” value in assay [9], in assay [8] and in assay [2] was 100% throughout.
For the compound `CC(Cc1cccc(Cl)c1)CN(C)Cc1ccc(Cl)nc1` (stereo not drawn) [Compound (b), 6-chloro-N-methyl-N-[2-methyl-3-(3-chlorophenyl)propyl]-3-pyridylmethylamine, reference compound], the results for the “Preventive Value (%)” value in assay [9], in assay [8] and in assay [2] were 30%, 80% and 70%, respectively.
On to `CN(Cc1ccc(Cl)nc1)CC(C)(C)Cc1ccc(C(C)(C)C)cc1` [Compound I-18, N-[3-(4-t-butylphenyl)-2,2-dimethylpropyl]-6-chloro-N-methyl-3-pyridylmethylamine], for which the “Preventive Value (%)” value in assay [2] came out at 100%. Moreover, the inhibition at 100 µg/mL in [3], in assay [4], in assay [5], in [6] and in assay [7] was at least 90% each time.
